{"source": "patent US7229630B2", "about": "“Stabilized formulations of alpha adrenergic receptor antagonists and the uses thereof” (Novalar Pharmaceuticals, Inc., priority 2002, dated 2007)", "key": {"[1]": {"assay": "Effect of buffer anion on stability at 60° C. (HPLC)", "format": "physicochemical", "description": "The drug is monitored at a detection wavelength of 232 nm.\nTightly sealed glass vials containing the test solutions were placed in an oven at 40° C. or 60° C. All samples were stored in the dark. Aliquots were removed at designated time points for HPLC analysis and pH measurement. All samples were analyzed without dilution.\nThe test buffers included 50 mM sodium phosphate, 50 mM sodium acetate, 50 mM sodium lactate, 50 mM sodium citrate, and 50 mM sodium succinate buffers at pH 3.\nThe phosphate and acetate buffers were prepared as described above. The citrate buffer was prepared by adding 9.60 g of citric acid to water, adjusting the pH with 2 N NaOH to pH 3, and bringing the volume to 1 L in a volumetric flask. The lactate buffer was prepared by adding 2.25 g of lactic acid to water, adjusting the pH with 2 N NaOH to pH 3, and bringing the volume to 1 L in a volumetric flask. The succinate buffer was prepared by adding 2.95 g succinic acid to water, adjusting the pH with 2 N NaOH to pH 3, and bringing the volume to 1 L in a volumetric flask.\nMeasurements of sample pH were done after HPLC analysis."}, "healthy adult volunteers": {"system": "healthy adult volunteers", "assay": "Reversal of soft-tissue anesthesia after inferior alveolar nerve block, proof-of-principle trial", "format": "in vivo, human", "conditions": "0.2 mg in 1.8 ml", "description": "The objective of this proof-of-principle trial was to evaluate the feasibility of reversing soft-tissue anesthesia by pharmacologically blocking the effects of epinephrine. […] Subjects self-evaluated the return of normal sensation in their lip, chin, tongue, nose, and teeth by palpations at 5-minute intervals starting at 5 minutes before the study drug injection and continuing for approximately 4–5 hours. To avoid biased responding, subjects were told that they could not leave the clinic for 8 hours after the last injection. Responses for soft tissues were categorized as (1) numb (no feeling), (2) feeling of pins and needles, or (3) normal sensation. Responses for teeth were (1) numb (no feeling) or (2) normal sensation. Safety was evaluated through reports of adverse events, measurement of vital signs and two-lead electrocardiograms before, during, and after the injections of anesthetic and study drug, and through pain assessments using visual analog scales."}, "[2]": {"system": "healthy adult volunteer subjects", "assay": "Dose range study of reversal of local anesthesia after mandibular nerve block", "format": "in vivo, human", "excerpt": "The objectives of this study were to evaluate the safety and efficacy of a range of doses of phentolamine in reversing local anesthesia after a mandibular nerve block. […] Subjects palpated their lower lip, chin, tongue, and teeth every five minutes for the next five hours after injections."}, "[3]": {"conditions": "50 mM sodium Acetate pH 3.0, 60° C., Day 0"}, "[4]": {"conditions": "50 mM sodium Acetate pH 3.0, 60° C., Day 2"}, "[5]": {"conditions": "50 mM sodium Acetate pH 3.0, 60° C., Day 7"}, "[6]": {"conditions": "50 mM sodium Acetate pH 3.0, 60° C., Day 14"}, "[7]": {"conditions": "50 mM sodium Citrate pH 3.0, 60° C., Day 0"}, "[8]": {"conditions": "50 mM sodium Citrate pH 3.0, 60° C., Day 2"}, "[9]": {"conditions": "50 mM sodium Citrate pH 3.0, 60° C., Day 7"}, "[10]": {"conditions": "50 mM sodium Citrate pH 3.0, 60° C., Day 14"}, "[11]": {"conditions": "50 mM sodium Lactate pH 3.0, 60° C., Day 0"}, "[12]": {"conditions": "50 mM sodium Lactate pH 3.0, 60° C., Day 2"}, "[13]": {"conditions": "50 mM sodium Lactate pH 3.0, 60° C., Day 7"}, "[14]": {"conditions": "50 mM sodium Lactate pH 3.0, 60° C., Day 14"}, "[15]": {"conditions": "50 mM sodium Phosphate pH 3.0, 60° C., Day 0"}, "[16]": {"conditions": "50 mM sodium Phosphate pH 3.0, 60° C., Day 2"}, "[17]": {"conditions": "50 mM sodium Phosphate pH 3.0, 60° C., Day 7"}, "[18]": {"conditions": "50 mM sodium Phosphate pH 3.0, 60° C., Day 14"}, "[19]": {"conditions": "50 mM sodium Succinate pH 3.0, 60° C., Day 0"}, "[20]": {"conditions": "50 mM sodium Succinate pH 3.0, 60° C., Day 2"}, "[21]": {"conditions": "50 mM sodium Succinate pH 3.0, 60° C., Day 7"}, "[22]": {"conditions": "50 mM sodium Succinate pH 3.0, 60° C., Day 14"}}, "note": "Where a name gives a salt, the structure may show the parent alone."}
{"molecule": "Cc1ccc(N(CC2=NCCN2)c2cccc(O)c2)cc1", "note": "[Phentolamine Mesylate, phentolamine mesylate]", "values": [{"measurement": "Phentolamine Concentration", "setting": "[1]; [3]", "result": 96, "unit": "µg/mL"}, {"measurement": "Phentolamine Purity", "setting": "[1]; [3]", "result": 100, "unit": "% peak area"}, {"measurement": "Phentolamine Concentration", "setting": "[1]; [4]", "result": 95, "unit": "µg/mL"}, {"measurement": "Phentolamine Purity", "setting": "[1]; [4]", "result": 98, "unit": "% peak area"}, {"measurement": "Phentolamine Concentration", "setting": "[1]; [5]", "result": 94, "unit": "µg/mL"}, {"measurement": "Phentolamine Purity", "setting": "[1]; [5]", "result": 97, "unit": "% peak area"}, {"measurement": "Phentolamine Concentration", "setting": "[1]; [6]", "result": 89, "unit": "µg/mL"}, {"measurement": "Phentolamine Purity", "setting": "[1]; [6]", "result": 96, "unit": "% peak area"}, {"measurement": "Phentolamine Concentration", "setting": "[1]; [7]", "result": 93, "unit": "µg/mL"}, {"measurement": "Phentolamine Purity", "setting": "[1]; [7]", "result": 97, "unit": "% peak area"}, {"measurement": "Phentolamine Concentration", "setting": "[1]; [8]", "result": 87, "unit": "µg/mL"}, {"measurement": "Phentolamine Purity", "setting": "[1]; [8]", "result": 91, "unit": "% peak area"}, {"measurement": "Phentolamine Concentration", "setting": "[1]; [9]", "result": 73, "unit": "µg/mL"}, {"measurement": "Phentolamine Purity", "setting": "[1]; [9]", "result": 77, "unit": "% peak area"}, {"measurement": "Phentolamine Concentration", "setting": "[1]; [10]", "result": 62, "unit": "µg/mL"}, {"measurement": "Phentolamine Purity", "setting": "[1]; [10]", "result": 69, "unit": "% peak area"}, {"measurement": "Phentolamine Concentration", "setting": "[1]; [11]", "result": 97, "unit": "µg/mL"}, {"measurement": "Phentolamine Purity", "setting": "[1]; [11]", "result": 99, "unit": "% peak area"}, {"measurement": "Phentolamine Concentration", "setting": "[1]; [12]", "result": 94, "unit": "µg/mL"}, {"measurement": "Phentolamine Purity", "setting": "[1]; [12]", "result": 98, "unit": "% peak area"}, {"measurement": "Phentolamine Concentration", "setting": "[1]; [13]", "result": 91, "unit": "µg/mL"}, {"measurement": "Phentolamine Purity", "setting": "[1]; [13]", "result": 94, "unit": "% peak area"}, {"measurement": "Phentolamine Concentration", "setting": "[1]; [14]", "result": 83, "unit": "µg/mL"}, {"measurement": "Phentolamine Purity", "setting": "[1]; [14]", "result": 89, "unit": "% peak area"}, {"measurement": "Phentolamine Concentration", "setting": "[1]; [15]", "result": 96, "unit": "µg/mL"}, {"measurement": "Phentolamine Purity", "setting": "[1]; [15]", "result": 99, "unit": "% peak area"}, {"measurement": "Phentolamine Concentration", "setting": "[1]; [16]", "result": 93, "unit": "µg/mL"}, {"measurement": "Phentolamine Purity", "setting": "[1]; [16]", "result": 97, "unit": "% peak area"}, {"measurement": "Phentolamine Concentration", "setting": "[1]; [17]", "result": 91, "unit": "µg/mL"}, {"measurement": "Phentolamine Purity", "setting": "[1]; [17]", "result": 95, "unit": "% peak area"}, {"measurement": "Phentolamine Concentration", "setting": "[1]; [18]", "result": 84, "unit": "µg/mL"}, {"measurement": "Phentolamine Purity", "setting": "[1]; [18]", "result": 91, "unit": "% peak area"}, {"measurement": "Phentolamine Concentration", "setting": "[1]; [19]", "result": 96, "unit": "µg/mL"}, {"measurement": "Phentolamine Purity", "setting": "[1]; [19]", "result": 99, "unit": "% peak area"}, {"measurement": "Phentolamine Concentration", "setting": "[1]; [20]", "result": 88, "unit": "µg/mL"}, {"measurement": "Phentolamine Purity", "setting": "[1]; [20]", "result": 92, "unit": "% peak area"}, {"measurement": "Phentolamine Concentration", "setting": "[1]; [21]", "result": 74, "unit": "µg/mL"}, {"measurement": "Phentolamine Purity", "setting": "[1]; [21]", "result": 78, "unit": "% peak area"}, {"measurement": "Phentolamine Concentration", "setting": "[1]; [22]", "result": 64, "unit": "µg/mL"}, {"measurement": "Phentolamine Purity", "setting": "[1]; [22]", "result": 74, "unit": "% peak area"}, {"measurement": "rank of buffer preference based on the amount of phentolamine recovered at the end of the study", "setting": "[1]; pH 3, 60° C., 14 days", "result": "sodium acetate>no buffer (water with pH adjusted to pH 3)>sodium phosphate>sodium lactate>sodium succinate>sodium citrate"}, {"measurement": "electrocardiogram", "setting": "healthy adult volunteers", "result": "no abnormalities"}, {"measurement": "duration of anesthesia", "setting": "healthy adult volunteers; 60 minutes after 2% lidocaine with 1:100,000 epinephrine, vs saline, each tissue", "result": "significantly (p<0.01) reduced"}, {"measurement": "Adverse effects", "setting": "healthy adult volunteers; vs placebo", "result": "few and no differences were noted between the active and placebo groups"}, {"measurement": "electrocardiogram", "setting": "[2]; 0.02 mg, 0.06 mg, 0.4 mg in 1.8 ml", "result": "no abnormalities"}, {"measurement": "Adverse events", "setting": "[2]; 0.02 mg, 0.06 mg, 0.4 mg in 1.8 ml, vs placebo", "result": "few and no differences were noted between the active and placebo groups"}, {"measurement": "duration of anesthesia", "setting": "[2]; all doses tested (0.02 mg, 0.06 mg, 0.4 mg in 1.8 ml), 60 minutes after lidocaine 2% with epinephrine 1:100,000, vs saline, each measured tissue", "result": "significantly (p<0.05) reduced"}]}
